pIC50: −log10 of the molar value.
Assays:
[1] = target: Replicase polyprotein 1ab (Severe acute respiratory syndrome coronavirus 2) (UniProt P0DTD1); test: Binding affinity to SARS-Cov-2 Main protease
[2] = target: Replicase polyprotein 1ab (Severe acute respiratory syndrome coronavirus 2) (UniProt P0DTD1); test: Binding affinity to SARS-Cov-2 PLpro
[3] = target: Spike glycoprotein (Severe acute respiratory syndrome coronavirus 2) (UniProt P0DTC2); test: Binding affinity to SARS-Cov-2 Spike protein
[4] = target: Dual specificity mitogen-activated protein kinase kinase; MEK1/2 (Homo sapiens, UniProt P36507+Q02750); test: Inhibition of MEK1/2 (unknown origin); type: protein assay
[5] = Half life in rat; type: ADME; conditions: in vivo
[6] = Half life in dog; type: ADME, Canis lupus familiaris; conditions: in vivo
[7] = Inhibition of CGRP (unknown origin); set-up: species or system Homo sapiens

## CNC(=O)c1ccc(-c2cnc3ncc(Cc4ccc5ncccc5c4)n3n2)cc1F
[1]
  K: -38.9 kJ/mol
[2]
  K: -32.2 kJ/mol
[3]
  K: -32.2 kJ/mol

## Cn1cnc2c(F)c(Nc3ccc(Br)cc3F)c(C(=O)NOCCO)cc21 [BINIMETINIB]
[4]
  pIC50: 7.92

## CN1CCN2c3c(cccc31)[C@@H]1CN(CCCC(=O)c3ccc(F)cc3)CC[C@@H]12 [LUMATEPERONE]
[5]
  half-life: ≤ 30 h
[6]
  half-life: ≤ 30 h
[7]
  pIC50: 9.85
